Where a SMILES comes first, the peptide text is derived from it. Bridges are numbered along the chain shown (N, C = ends). The star is where a group is joined. Biotin = O=C1N[C@H]2[C@H](CS[C@H]2CCCCC(=O)*)N1
What was measured:
[1] = Far-UV CD analysis at different temperatures; format: physicochemical; details: 0.2 mg/ml peptide
Experimental: Peptides were resuspended in Molecular Biology Grade water or 10 mM sodium phosphate, pH 7, at a concentration of 200 μM to 1.4 mM. Far-UV scans were measured on an Aviv Model 410 spectrometer measuring at 0.5 nm intervals with a 1 sec averaging time, between 190 and 260 nm using 0.2 mg/ml peptide and a 1 nm bandwidth. Three scans were taken in total at each temperature and the results averaged. The CD scans were plotted using Aviv model 4.10 software, and the data were converted to molar ellipticity (M^−1 cm^−1). […] This far-UV spectrum is characteristic of other small structurally characterised β-sheet structures (Koepf et al. 1999, Protein Science, 8, 841-853; see FIG. 15).

[2] = target: T1, VEGFR2-Fc fusion (Homo sapiens, UniProt P35968); assay: Real time binding assay by biolayer interferometry (Octet Red), steady state analysis
T1 construct: His tag (only implied: capture on TALON beads, detection with penta His-HRP); purchased R&D Systems
Experimental: Alternatively, real-time binding assays between a chemically synthesised WW domain and ligand may be performed using biolayer interferometry with an Octet Red system (Fortebio, Menlo Park, Calif.). Biotinylated WW domain is immobilised to streptavidin biosensors (Fortebio) at a concentration of 50 ng/μl in PBS. Association curves are then detected by incubating WW domain-coated sensors with different concentrations of ligand (e.g. 1 to 100 nM in PBS), and dissociations detected by incubating the sensors in PBS. The dissociation constant for WW domain binding can be determined by steady state analysis.
Real-time binding assays between the peptides and VEGFR2-Fc fusion were performed using biolayer interferometry with an Octet Red system (Fortebio, Menlo Park, Calif.). WW peptides were immobilised on streptavidin biosensors (Fortebio) at a concentration of 2 μg/ml in kinetic buffer. Association curves were then detected by incubating the immobilised peptide with streptavidin-HRP (1 to 100 nM in kinetic buffer), and dissociations were detected by incubating the sensors in kinetic buffer.

[3] = Plasma stability assay; format: in vitro ADME; details: mouse, 250 μM peptide, 37° C., HPLC area, one phase exponential decay
Experimental: Peptides were resuspended in Molecular Biology Grade water at a concentration of 3 mM. The WW-B1 peptide was added to 300 μl mouse plasma (Harlan) or PBS (control) to a final concentration of 250 μM (2 samples). The samples were incubated at 37° C. 40 μl aliquots were removed from sample A at 0, 12, 14, 16, 18, 20 and 22 hr and from sample B at 0, 2, 4, 6, 8 and 10 hr. To purify each aliquot, double the volume of 100% ethanol (80 μl) was added and incubated at −20° C. for a few hours or overnight. The samples were centrifuged and 80 μl supernatant recovered. 40 μl water with 0.1% TFA was added to each sample and 100 μl was injected onto a SunFire C18 HPLC column. Buffer A (0.1% TFA in Water) was run through the column followed by 10-50% Buffer B (0.1% TFA, 5% water in 95% acetonitrile) over 20 min. The fractions from the column were collected and analysed using an AXIMA mass spectrometer.

[4] = target: T2, binding of VEGFR2 to VEGF (Homo sapiens, UniProt P35968); assay: Competition ELISA: binding of VEGFR2 to VEGF-A coated wells in presence of WW domain peptide
T2 construct: His tag (only implied by detection with penta His-HRP); purchased R&D Systems
Experimental: A competition assay was carried out in which binding of VEGFR2 to VEGF-A (VEGF) was competed by the presence of varying amounts of the selected modified WW domain peptide.
50 ng human VEGF (R&D Systems, Abingdon, UK) 1 μg/ml in PBS was coated per well onto a Maxisorp plate at 37° C. for 140 minutes. The wells were then blocked with 100 μl PBS containing 2% BSA for 55 minutes at room temperature. 1.25 ng VEGFR2 was preincubated with WW-B1 fused to maltose binding protein (MBP) in 50 μl PBS for 45 minutes at room temperature. The activity of the WW-B1 peptide was tested at serial dilutions from 10 μM to 156.25 nM. 50 μl 4% BSA in PBS was added to the preincubated VEGFR2 with WW-B1-MBP and the whole mixture was then added to the VEGF coated ELISA plate and incubated at room temperature for 55 minutes. The plate was then washed with 3 washes in PBS-Tween and 2 washes in PBS. Next 50 μl/well penta His-HRP (QIAgen, diluted 1:500 in 2% BSA in PBS) was added and the mixture incubated at room temperature for 55 minutes, before washing as before. ELISA signals were detected using SureBlue TMB peroxidase substrate (Insight biotechnology, Middlesex, UK) at 450 nm.
As a control, the above process was repeated with wild-type Pin1 WW domain peptide replacing WW-B1. The results are illustrated in FIG. 6.

T2 sequence (P35968 with tags, fused parts or gaps): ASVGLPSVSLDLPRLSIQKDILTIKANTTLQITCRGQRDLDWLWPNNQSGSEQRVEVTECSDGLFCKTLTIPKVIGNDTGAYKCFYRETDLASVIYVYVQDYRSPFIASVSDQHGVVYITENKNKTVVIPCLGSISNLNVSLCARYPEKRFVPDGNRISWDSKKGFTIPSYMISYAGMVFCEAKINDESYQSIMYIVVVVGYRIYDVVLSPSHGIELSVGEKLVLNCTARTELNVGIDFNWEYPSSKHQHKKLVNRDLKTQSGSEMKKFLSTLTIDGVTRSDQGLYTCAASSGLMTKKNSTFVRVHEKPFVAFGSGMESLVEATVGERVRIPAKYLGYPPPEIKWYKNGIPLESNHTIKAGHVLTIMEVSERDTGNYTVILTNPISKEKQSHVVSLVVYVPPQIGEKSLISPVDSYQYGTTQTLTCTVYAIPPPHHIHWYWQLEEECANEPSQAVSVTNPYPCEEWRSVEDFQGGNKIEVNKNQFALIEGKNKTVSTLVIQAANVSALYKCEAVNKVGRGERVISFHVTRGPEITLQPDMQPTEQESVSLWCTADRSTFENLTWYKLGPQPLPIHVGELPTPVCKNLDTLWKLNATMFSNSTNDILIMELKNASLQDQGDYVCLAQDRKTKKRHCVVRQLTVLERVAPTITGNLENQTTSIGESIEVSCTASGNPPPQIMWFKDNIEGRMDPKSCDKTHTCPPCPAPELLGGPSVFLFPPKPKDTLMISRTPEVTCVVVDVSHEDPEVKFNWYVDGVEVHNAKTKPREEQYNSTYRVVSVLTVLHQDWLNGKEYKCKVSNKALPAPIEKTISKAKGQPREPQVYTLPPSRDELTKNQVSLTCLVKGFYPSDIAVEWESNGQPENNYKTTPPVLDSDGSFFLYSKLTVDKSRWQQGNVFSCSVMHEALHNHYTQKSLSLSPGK
T1 sequence (P35968 with tags, fused parts or gaps): as above

structure after heating to 95° C. and cooling to 25° C. [1]	CD peak at 227-231 nm at 95° C. (folding state) [1]	Kd ([2]; peptide on streptavidin biosensors, 2 μg/ml in kinetic buffer, steady state analysis (Example 4), read-out: dissociation constant / affinity for VEGFR2) [nM]	binding affinity to VEGFR2 compared with non-cyclised WW-B1 ([2]; tested as set out in Example 2)	half-life at 250 μM [3] [h]	binding affinity for VEGFR2 (concluded from competition assay) ([4]; control replacing WW-B1)	effect on the binding of VEGFR2 to VEGF ([4]; control replacing WW-B1 in the competition ELISA)	Compound
able to reform its structure	unfolding	31	comparable activity				CC[C@H](C)[C@@H]1NC(=O)[C@H](CC(=O)O)NC(=O)[C@H](CC(N)=O)NC(=O)[C@H](C(C)C)NC(=O)[C@H](Cc2ccc(O)cc2)NC(=O)[C@H](CC(C)C)NC(=O)[C@H](C(C)C)NC(=O)[C@H](CCCNC(=N)N)NC(=O)CNC(=O)[C@@H]2CCCN2C(=O)[C@H](CO)NC(=O)[C@H](CO)NC(=O)[C@H](Cc2c[nH]c3ccccc23)NC(=O)[C@H](CCSC)NC(=O)[C@H](CCCCN)NC(=O)[C@H](Cc2ccc(O)cc2)NC(=O)[C@H](Cc2c[nH]c3ccccc23)NC(=O)CNC(=O)[C@@H]2CCCN2C(=O)[C@@H]2CCCN2C(=O)[C@H](CC(C)C)NC(=O)[C@@H](NC(=O)[C@H](CCC(=O)O)NC(=O)[C@H](CCC(=O)O)NC(=O)[C@H](CC(=O)O)NC(=O)CCCC[C@@H]2SC[C@@H]3NC(=O)N[C@@H]32)CCCCNC(=O)CC[C@@H](C(=O)NCC(N)=O)NC(=O)[C@@H]2CCCN2C(=O)[C@H](CCCNC(=N)N)NC(=O)[C@H](CCC(=O)O)NC(=O)[C@H](Cc2c[nH]c3ccccc23)NC(=O)[C@H](CCCNC(=N)N)NC(=O)[C@H](Cc2c[nH]cn2)NC(=O)[C@H](C)NC(=O)[C@H](Cc2c[nH]cn2)NC(=O)[C@H]([C@@H](C)O)NC1=O [cyclised WW-B1] (Biotin-DEEKLPPGWYKMWSSPGRVLYVNDITHAHRWERPEG-NH2; lactam 4-35)
able to reform its structure	unfolding			6.2			CC[C@H](C)[C@H](NC(=O)[C@H](CC(=O)O)NC(=O)[C@H](CC(N)=O)NC(=O)[C@@H](NC(=O)[C@H](Cc1ccc(O)cc1)NC(=O)[C@H](CC(C)C)NC(=O)[C@@H](NC(=O)[C@H](CCCNC(=N)N)NC(=O)CNC(=O)[C@@H]1CCCN1C(=O)[C@H](CO)NC(=O)[C@H](CO)NC(=O)[C@H](Cc1c[nH]c2ccccc12)NC(=O)[C@H](CCSC)NC(=O)[C@H](CCCCN)NC(=O)[C@H](Cc1ccc(O)cc1)NC(=O)[C@H](Cc1c[nH]c2ccccc12)NC(=O)CNC(=O)[C@@H]1CCCN1C(=O)[C@@H]1CCCN1C(=O)[C@H](CC(C)C)NC(=O)[C@H](CCCCN)NC(=O)[C@H](CCC(=O)O)NC(=O)[C@H](CCC(=O)O)NC(=O)[C@H](CC(=O)O)NC(=O)[C@H](C)NC(=O)[C@H](CCSC)NC(=O)CCCC[C@@H]1SC[C@@H]2NC(=O)N[C@@H]21)C(C)C)C(C)C)C(=O)N[C@H](C(=O)N[C@@H](Cc1c[nH]cn1)C(=O)N[C@@H](C)C(=O)N[C@@H](Cc1c[nH]cn1)C(=O)N[C@@H](CCCNC(=N)N)C(=O)N[C@@H](Cc1c[nH]c2ccccc12)C(=O)N[C@@H](CCC(=O)O)C(=O)N[C@@H](CCCNC(=N)N)C(=O)N1CCC[C@H]1C(=O)N[C@@H](CO)C(=O)NCC(N)=O)[C@@H](C)O [WW-B1] (Biotin-MADEEKLPPGWYKMWSSPGRVLYVNDITHAHRWERPSG-NH2; N-terminus and C-terminus assumed)
					negligible	essentially no effect	MADEEKLPPGWEKRMSRSSGRVYYFNHITNASQWERPSG [wild-type Pin1 WW domain, peptide fragment of the human Pin1 protein, used as control]

— patent US20140005126A1, “SCAFFOLD PEPTIDES” (ISOGENICA LTD, priority 2010, published 2014)
